The values that follow come from patent publication EP3478687B1 (Daewoong Pharmaceutical Co., Ltd., priority 2016, dated 2018).

Assay [1] has as its target T1, Recombinant purified human BTK (Homo sapiens, UniProt Q06187).
T1 construct: purchased Promega V9071
Put plainly: BTK kinase inhibitory activity, ADP-Glo kinase assay (Promega V9071). In kind it is biochemical. The note with it: for IC50: ATP 10 uM, 8 ng BTK per reaction, 1 hour 30 °C, chemiluminescence; for inhibition at 0.1 µM: @100nM compound; for inhibition at 1 µM: @1uM compound. On the procedure: (§1) JAK3 and BTK kinase inhibitory activities were measured for the compounds prepared in the above Examples through in vitro analysis on the ADP Glow (Glo) platform.
(§2) Specifically, the inhibitory activities of JAK3 and BTK kinase were measured using a JAK3 kinase assay kit (Promega, V9441) and a BTK kinase assay kit (Promega, V9071) which were purchased from Promega. Recombinant purified human JAK3 and BTK were diluted with 1 x kinase reaction buffer (JAK3: 40 mM Tris-Cl, pH 7.5, 20 mM MgCh, 0.1 mg/mL BSA and 50 uM DTT / BTK: 40 mM Tris-Cl, pH 7.5, 20 mM MgCl2, 0.1 mg/mL BSA, 2 mM MnCl2 and 50 uM DTT) and added to a 96 well plate (JAK3: final concentration of 4 ng per reaction/BTK: final concentration of 8 ng per reaction). The compounds were treated so as to be finally a 1% DMSO aqueous solution, and a substrate cocktail containing ATP (JAK3: final concentration of 5 uM / BTK: final concentration of 10 uM) and 0.2 µg/µL of Poly(Glu4, Tyr1) peptide (JAK3 and BTK final concentration) in the total 25 µL reactants was added to a 96-well plate to initiate enzymatic reaction. After incubation (30 °C) for 1 hour, equivalent volume (25 µL per reaction) of ADP Glo was added and incubated (30 °C) for 40 minutes at room temperature. Then, a kinase detection reagent (50 µL per reaction) was added and incubated (30 °C) for 30 minutes at room temperature. The kinase activity was measured by chemiluminescence according to the instructions of ADP Glo kinase assay kit, and the inhibitory activity of the compounds according to the present invention was calculated. For the analysis of the results of each compound, Microsoft Excel was used, and IC50 values were calculated by SigmaPlot software.
(ADP-Glo first removes unused ATP, then detects ADP through luciferase.)

Assay [2] concerns the target T2, Recombinant purified human JAK3 (Homo sapiens, UniProt P52333).
T2 construct: purchased Promega V9441
T2 sequence (P52333 1-1124): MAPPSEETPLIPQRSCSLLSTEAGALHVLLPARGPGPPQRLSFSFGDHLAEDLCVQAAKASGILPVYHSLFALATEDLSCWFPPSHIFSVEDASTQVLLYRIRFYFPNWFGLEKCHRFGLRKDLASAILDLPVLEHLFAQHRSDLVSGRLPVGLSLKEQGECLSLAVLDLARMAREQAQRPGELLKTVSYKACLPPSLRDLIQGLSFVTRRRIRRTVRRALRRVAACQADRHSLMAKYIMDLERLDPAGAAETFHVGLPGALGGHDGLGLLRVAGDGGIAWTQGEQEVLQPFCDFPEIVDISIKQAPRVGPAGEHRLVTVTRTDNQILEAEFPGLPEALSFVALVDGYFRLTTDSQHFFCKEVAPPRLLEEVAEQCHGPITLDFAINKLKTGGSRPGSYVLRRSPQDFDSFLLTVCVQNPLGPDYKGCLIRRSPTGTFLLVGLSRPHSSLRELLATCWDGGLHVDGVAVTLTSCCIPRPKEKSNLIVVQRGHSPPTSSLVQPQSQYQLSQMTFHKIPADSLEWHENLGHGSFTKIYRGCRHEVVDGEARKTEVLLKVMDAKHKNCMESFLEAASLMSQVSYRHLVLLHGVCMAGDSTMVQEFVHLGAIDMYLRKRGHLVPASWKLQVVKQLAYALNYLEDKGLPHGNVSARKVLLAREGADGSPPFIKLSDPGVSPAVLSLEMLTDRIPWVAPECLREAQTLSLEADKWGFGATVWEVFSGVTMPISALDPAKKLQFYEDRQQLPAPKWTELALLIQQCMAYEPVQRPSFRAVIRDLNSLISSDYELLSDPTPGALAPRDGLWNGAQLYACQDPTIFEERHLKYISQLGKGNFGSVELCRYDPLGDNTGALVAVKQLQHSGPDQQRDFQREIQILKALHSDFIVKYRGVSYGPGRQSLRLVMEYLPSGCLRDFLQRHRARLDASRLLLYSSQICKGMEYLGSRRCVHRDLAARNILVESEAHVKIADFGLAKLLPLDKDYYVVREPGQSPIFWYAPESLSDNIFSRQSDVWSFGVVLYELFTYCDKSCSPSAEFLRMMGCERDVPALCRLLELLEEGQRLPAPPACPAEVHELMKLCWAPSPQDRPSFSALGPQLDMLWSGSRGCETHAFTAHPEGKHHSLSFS
Put plainly: JAK3 kinase inhibitory activity, ADP-Glo kinase assay (Promega V9441). The format is biochemical. Particulars: for IC50: ATP 5 uM, 4 ng JAK3 per reaction, 1 hour 30 °C, chemiluminescence; for inhibition at 0.1 µM: @100nM compound. On the procedure:
as §1, §2

The mark [3] stands for this setting: printed in the JAK3 IC50 column.

SMILES strings stand for the structures.

T1 sequence (Q06187 whole entry): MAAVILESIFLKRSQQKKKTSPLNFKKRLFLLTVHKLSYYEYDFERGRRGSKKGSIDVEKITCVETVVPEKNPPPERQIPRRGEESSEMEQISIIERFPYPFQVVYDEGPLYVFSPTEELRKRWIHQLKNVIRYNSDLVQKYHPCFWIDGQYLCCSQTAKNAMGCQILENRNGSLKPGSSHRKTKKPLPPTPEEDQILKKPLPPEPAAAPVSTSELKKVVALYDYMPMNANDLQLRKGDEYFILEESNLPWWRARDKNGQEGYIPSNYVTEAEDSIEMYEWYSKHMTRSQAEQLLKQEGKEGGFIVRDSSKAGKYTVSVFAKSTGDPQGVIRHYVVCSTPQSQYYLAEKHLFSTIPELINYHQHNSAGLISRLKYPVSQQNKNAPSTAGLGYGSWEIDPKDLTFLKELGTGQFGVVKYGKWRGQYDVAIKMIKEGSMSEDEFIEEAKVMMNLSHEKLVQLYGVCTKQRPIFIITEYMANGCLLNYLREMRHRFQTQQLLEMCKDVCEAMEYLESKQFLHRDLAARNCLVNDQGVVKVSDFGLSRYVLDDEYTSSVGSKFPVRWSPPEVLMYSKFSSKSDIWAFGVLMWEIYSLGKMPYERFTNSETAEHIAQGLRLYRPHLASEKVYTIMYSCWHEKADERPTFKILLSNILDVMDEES

Broadly, the IC50 is the point on the concentration scale where inhibition reaches its midpoint. For `C=CC(=O)N1CCC[C@@H](Nc2nc(Nc3cnn(Cc4cccc(OC)c4)c3)nc3[nH]ccc23)C1` [Example 20, (R)-1-(3-(2-(1-(3-methoxybenzyl)-1H-pyrazol-4-ylamino)-7H-pyrrolo[2,3-d]pyrimidin-4-ylamino)piperidin-1-yl)prop-2-en-1-one], the concentration for half-maximal inhibition (IC50) was 9.5 nM in assay [1] and 0.7 nM in assay [2].

`C=CC(=O)N1CCC[C@@H](Nc2nc(Nc3cnn(CC)c3)nc3[nH]ccc23)C1` [Example 21, (R)-1-(3-(2-(1-ethyl-1H-pyrazol-4-ylamino)-7H-pyrrolo[2,3-d]pyrimidin-4-ylamino)piperidin-1-yl)prop-2-en-1-one]: the figures for the IC50 in assay [1] and in assay [2] were 4.5 nM and 0.4 nM, respectively.

By inhibition is commonly meant the percentage by which the read-out fell short of the control. For the molecule `C=CC(=O)N1CCC[C@@H](Nc2nc(Nc3cn(C)nc3C)nc3[nH]ccc23)C1` [Example 22, (R)-1-(3-(2-(1,3-dimethyl-1H-pyrazol-4-ylamino)-7H-pyrrolo[2,3-d]pyrimidin-4-ylamino)piperidin-1-yl)prop-2-en-1-one], the inhibition at 0.1 µM in assay [1] was 8.9%; in assay [2] (setting [3]), 17.3%.

As for `C=CC(=O)N1CCC[C@@H](Nc2nc(Nc3cnoc3)nc3[nH]ccc23)C1` [Example 23, (R)-1-(3-(2-(isoxazol-4-ylamino)-7H-pyrrolo[2,3-d]pyrimidin-4-ylamino)piperidin-1-yl)prop-2-en-1-one], the results for the IC50 in assay [1] and in assay [2] were 13.9 nM and 0.9 nM, respectively.

On to `C=CC(=O)N1CCC[C@@H](Nc2nc(Nc3cnn(CC(=O)NC)c3)nc3[nH]ccc23)C1` [Example 24, (R)-2-(4-(4-(1-acryloylpiperidin-3-ylamino)-7H-pyrrolo[2,3-d]pyrimidin-2-ylamino)-1H-pyrazol-1-yl)-N-methylacetamide], for which the IC50 in assay [1] was found to be 15.3 nM; in assay [2], 0.4 nM.

`CC#CC(=O)N1CCC[C@@H](Nc2nc(Nc3cnn(CC(F)F)c3)nc3[nH]ccc23)C1` [Example 25, (R)-1-(3-(2-(1-(2,2-difluoroethyl)-1H-pyrazol-4-ylamino)-7H-pyrrolo[2,3-d]pyrimidin-4-ylamino)piperidin-1-yl)but-2-yn-1-one]: the inhibition at 0.1 µM in assay [1] came out at 39.3%. Also, the IC50 in assay [2] is 11.2 nM.

Take `C=CC(=O)Nc1cccc(Nc2nc(N[C@@H]3CCCN(C(=O)CC#N)C3)c3cc[nH]c3n2)c1` [Example 26, (R)-N-(3-(4-(1-(2-cyanoacetyl)piperidin-3-ylamino)-7H-pyrrolo[2,3-d]pyrimidin-2-ylamino)phenyl)acrylamide]: in assay [1], the inhibition at 0.1 µM came out at 10.3%. For the same molecule, in assay [2], the IC50 was 39.2 nM.

With `C=CC(=O)N1CC[C@@H](C)[C@@H](N(C)c2nc(Nc3ccc(N4CCN(C)CC4)cc3)nc3[nH]ccc23)C1` [Example 27, 1-((3R,4R)-4-methyl-3-(methyl(2-(4-(4-methylpiperazin-1-yl)phenylamino)-7H-pyrrolo[2,3-d]pyrimidin-4-yl)amino)piperidin-1-yl)prop-2-en-1-one], the inhibition at 1 µM in assay [1] amounted to 48%; in assay [2] (@1uM compound, printed in the JAK3 IC50 column), 32.8%.

`C[C@@H]1CCN(C(=O)CC#N)C[C@@H]1N(C)c1nc(Nc2ccc(N3CCN(C)CC3)cc2)nc2[nH]ccc12` [Example 28, 3-((3R,4R)-4-methyl-3-(methyl(2-(4-(4-methylpiperazin-1-yl)phenylamino)-7H-pyrrolo[2,3-d]pyrimidin-4-yl)amino)piperidin-1-yl)-3-oxopropanenitrile]: in assay [1], the inhibition at 1 µM was found to be 3.3%. Besides, the IC50 in assay [2] worked out at 186 nM.

As for `C=CC(=O)NC1CCCC(Nc2nc(Nc3ccc(N4CCN(C)CC4)cc3)nc3[nH]ccc23)C1` (stereo not drawn) [Example 29, N-(3-(2-(4-(4-methylpiperazin-1-yl)phenylamino)-7H-pyrrolo[2,3-d]pyrimidin-4-ylamino)cyclohexyl)acrylamide], in assay [1], the inhibition at 1 µM was 47.1%. In assay [2], the IC50 is 66.2 nM.

For `C=CC(=O)N1CCC[C@@H](Nc2nc(Nc3ccc(N4CCN(C)CC4)cc3)nc3[nH]ncc23)C1` [Example 30, (R)-1-(3-(6-(4-(4-methylpiperazin-1-yl)phenylamino)-1H-pyrazolo [3,4-d]pyrimidin-4-ylamino)piperidin-1-yl)prop-2-en-1-one], the IC50 in assay [1] is 6 nM. Moreover, the inhibition at 0.1 µM in assay [2] (setting [3]) was determined as 52.6%.

Consider `C=CC(=O)N1CCC[C@@H](Nc2nc(Nc3cnn(CC(F)F)c3)nc3[nH]ncc23)C1` [Example 31, (R)-1-(3-(6-(1-(2,2-difluoroethyl)-1H-pyrazol-4-ylamino)-1H-pyrazolo [3,4-d]pyrimidin-4-ylamino)piperidin-1-yl)prop-2-en-1-one], for which the IC50 was found to be 2.2 nM in assay [1] and 3.4 nM in assay [2].

Consider `C=CC(=O)N1CCC[C@@H](Nc2nc(Nc3cnn(C)c3)nc3[nH]ncc23)C1` [Example 32, (R)-1-(3-(6-(1-methyl-1H-pyrazol-4-ylamino)-1H-pyrazolo[3,4-d]pyrimidin-4-ylamino)piperidin-1-yl)prop-2-en-1-one], for which the figures for the IC50 in assay [1] and in assay [2] were 2.8 nM and 10.7 nM, respectively.

Consider `C=CC(=O)N1CCC[C@@H](Nc2nc(Nc3cnn(CC)c3)nc3[nH]ncc23)C1` [Example 33, (R)-1-(3-(6-(1-ethyl-1H-pyrazol-4-ylamino)-1H-pyrazolo[3,4-d]pyrimidin-4-ylamino)piperidin-1-yl)prop-2-en-1-one], for which the IC50 in assay [1] was 1.6 nM; in assay [2], 4.9 nM.

Regarding `C=CC(=O)N1CCC[C@@H](Nc2nc(Nc3cnn(C(F)F)c3)nc3[nH]ncc23)C1` [Example 34, (R)-1-(3-(6-(1-(difluoromethyl)-1H-pyrazol-4-ylamino)-1H-pyrazolo [3,4-d]pyrimidin-4-ylamino)piperidin-1-yl)prop-2-en-1-one], the IC50 turned out to be 2.1 nM in assay [1] and 3.4 nM in assay [2].

In the case of `C=CC(=O)N1CCC[C@@H](Nc2nc(Nc3cnn(CC(=O)NC)c3)nc3[nH]ncc23)C1` [Example 35, (R)-2-(4-(4-(1-acryloylpiperidin-3-ylamino)-1H-pyrazolo[3,4-d]pyrimidin-6-ylamino)-1H-pyrazol-1-yl)-N-methylacetamide], the half-inhibitory concentration (IC50) in assay [1] was determined as 2.1 nM; in assay [2] it was 5.2 nM.

Take `C=CC(=O)N1CCC[C@@H](Nc2nc(Nc3ccc(N4CCN(C)CC4)cc3)nc3[nH]cc(Cl)c23)C1` [Example 36, (R)-1-(3-(5-chloro-2-(4-(4-methylpiperazin-1-yl)phenylamino)-7H-pyrrolo [2,3-d]pyrimidin-4-ylamino)piperidin-1-yl)prop-2-en-1-one]: the IC50 in assay [1] is 16.5 nM; in assay [2], 1.1 nM.

For the molecule `C=CC(=O)N1CCC[C@@H](Nc2nc(Nc3cnn(CC)c3)nc3[nH]cc(Cl)c23)C1` [Example 37, (R)-1-(3-(5-chloro-2-(1-ethyl-1H-pyrazol-4-ylamino)-7H-pyrrolo[2,3-d]pyrimidin-4-ylamino)piperidin-1-yl)prop-2-en-1-one], the IC50 in assay [1] came to 2.5 nM; in assay [2] it was 0.1 nM.
